From patent US20220324835A1 (Nurix Therapeutics, Inc., priority 2018, published 2022)

Experiments:
Assay type in all cases: cell-based
[1] = tested on: primary human total T-cells; test: T-cell activation assessed by cell proliferation (Cell Trace Violet)
Text: (§1) Peripheral blood mononuclear cells (PBMC) were obtained either: 1) by using Ficoll-Paque™ (GE Healthcare) for separation of peripheral blood hematopoietic cells from buffy coats of healthy human donors; or 2) directly from FeukoPak donations. Total human primary T-cells were isolated from the PMBCs utilizing negative selection with commercial kits following the manufacturer's protocol (Miltenyi Catalog #130-096-535 (i.e., cocktail of antibodies against surface markers CD14, CD15, CD16, CD19, CD34, CD36, CD56, CD123 and CD235a are incubated with the PBMCs before passing the samples by magnetic beads for removal of cells expressing those surface markers) or StemCells Catalog #17951) to yield >95% CD3+ cells as assessed by flow cytometry. For measurement of cell proliferation, cells were labeled with Cell Trace Violet (Invitrogen) following manufacturer's protocol prior to activation by stimulation with anti-CD3 antibody alone or in combination with anti-CD28 antibody. The Cbl-b inhibitor was added to 1×10^5 cells per well at multiple concentrations (e.g., 10 μM, 1.11 μM, or 0.123 μM) with a final DMSO concentration of <0.1%. The plate was incubated for one hour at 37° C. in 5% CO2. Following incubation with the Cbl-b inhibitor, primary human total T-cells were stimulated with either plate bound anti-CD3 antibody (OKT3) alone or plate bound anti-CD3 antibody (OKT3) with soluble anti-CD28 antibody (28.2) (Life Technologies). To prepare plates with plate bound anti-CD3 antibody (OKT3), 96-well round bottom tissue culture plates were coated with 100 μl of anti-CD3 antibody (OKT3) at 10 μg/mL for 4 hours at 37° C. 5% CO2 in phosphate buffered saline (PBS). The plates were washed with PBS prior to adding the cells with or without soluble anti-CD28 antibody (28.2) to each well at a final concentration of 5 μg/mL. Cells were stimulated for 48 hours prior to harvesting the cell free supernatant and staining the cell population for surface marker assessment by flow cytometry. Supernatants were analyzed for cytokine secretion (e.g., GM-CSF, IFNγ and TNFα) by ELISA (R&D Systems, Peprotech or Life Technologies) or Luminex multiplex kits (Procarta Life Technologies) following manufacturer's protocol. Cells were stained with anti-CD69 (BD Biosciences) to assess levels of surface markers of activation. Proliferation was measured by flow cytometry and data was analyzed with FlowJo v7.6.5 or v10. Readouts were reported as fold change over baseline. In some embodiments, baseline was the measurement obtained from total human T-cells stimulated with anti-CD3 antibody alone, wherein the cells were not incubated with a Cbl-b inhibitor. In some embodiments, baseline was the measurement obtained from total human T-cells stimulated with anti-CD3 antibody and anti-CD28 antibody, where the cells were not incubated with a Cbl-b inhibitor.
(§2) Cbl-b inhibitors were tested to determine their ability to induce or enhance secretion of cytokines from T-cells (e.g., GM-CSF, IFNγ and TNFα) and/or surface expression of cell surface markers on T-cells (e.g., CD69) that is indicative of T-cell activation. Cbl-b inhibitors were also tested to determine their ability to induce or enhance T-cell proliferation. Cbl-b inhibitors were tested for their effects on T-cell activation in the presence of costimulation and where conditions were suboptimal for priming.
(§3) Readouts for T-cell activation were reported as fold change over baseline. Baseline for this study was the measurement obtained from total human T-cells stimulated with anti-CD3 antibody alone or anti-CD3 antibody in combination with soluble anti-CD28 antibody, where the cells were not incubated with a Cbl-b inhibitor. For T-cells stimulated with anti-CD3/anti-CD28 or with anti-CD3 alone changes greater than 1,2-fold over baseline for % positive CD69 staining and greater than 2-fold over baseline for % total proliferating cells were considered a significant and positive response (Table 4a). […]

[2] = tested on: primary human total T-cells; test: T-cell activation assessed by CD69 expression
Text: as §1, §2, §3

[3] = tested on: primary human total T-cells; test: T-cell activation assessed by cytokine secretion (GM-CSF, IFNγ, TNFα)
Text: as §1, §2, §3

[4] = CD3/CD28 stimulation, CD4 T-cells, read-out: % CP (cell proliferation) (CD4)
[5] = CD3/CD28 stimulation, CD8 T-cells, read-out: % CP (cell proliferation) (CD8)
[6] = CD3 alone stimulation, CD8 T-cells, read-out: % CP (cell proliferation) (CD8)
[7] = CD3/CD28 stimulation, CD4 T-cells, read-out: % CD69+ (CD4)
[8] = CD3/CD28 stimulation, CD8 T-cells, read-out: % CD69+ (CD8)
[9] = CD3 alone stimulation, CD4 T-cells, read-out: % CD69+ (CD4)
[10] = CD3 alone stimulation, CD8 T-cells, read-out: % CD69+ (CD8)
[11] = CD3/CD28 stimulation, read-out: GM-CSF secretion
[12] = CD3/CD28 stimulation, read-out: IFNγ secretion
[13] = CD3/CD28 stimulation, read-out: TNFα secretion
[14] = CD3 alone stimulation, read-out: GM-CSF secretion
[15] = CD3 alone stimulation, read-out: IFNγ secretion
[16] = CD3 alone stimulation, read-out: TNFα secretion

Structure (SMILES) | fold induction at 1.11 µM [1, 4] | fold induction at 10 µM [1, 4] | fold induction at 1.11 µM [1, 5] | fold induction at 10 µM [1, 5] | fold induction at 1.11 µM [1, 6] | fold induction at 10 µM [1, 6] | fold induction at 1.11 µM [2, 7] | fold induction at 10 µM [2, 7] | fold induction at 1.11 µM [2, 8] | fold induction at 10 µM [2, 8] | fold induction at 1.11 µM [2, 9] | fold induction at 10 µM [2, 9] | fold induction at 1.11 µM [2, 10] | fold induction at 10 µM [2, 10] | fold induction at 1.11 µM [3, 11] | fold induction at 1.11 µM [3, 12] | fold induction at 1.11 µM [3, 13] | fold induction at 10 µM [3, 11] | fold induction at 10 µM [3, 12] | fold induction at 10 µM [3, 13] | other results
C[C@H](Cc1nncn1C)c1cccc(NC(=O)c2cccc(C(F)(F)F)n2)c1 [Compound 183a, (R)-N-(3-(1-(4-methyl-4H-1,2,4-triazol-3-yl)propan-2-yl)phenyl)-6-(trifluoromethyl)picolinamide] | 3.01 to 4 | > 4 | 2.01 to 3 | > 4 | 3.01 to 4 | > 4 | 1.2 to 1.4 | 1.4 to 1.6 | 1.2 to 1.4 | 1.2 to 1.4 | 1.4 to 1.6 | > 1.6 | 1.2 to 1.4 | 1.4 to 1.6 | 2.01 to 4 | 2.01 to 3 | 2.01 to 4 | > 4 | > 4 | 2.01 to 4 | fold induction at 1.11 µM [3, 14]: 1.51 to 2; fold induction at 1.11 µM [3, 15]: 2.01 to 3; fold induction at 1.11 µM [3, 16]: ≤ 1.5; fold induction at 10 µM [3, 14]: 2.01 to 4; fold induction at 10 µM [3, 15]: > 4; fold induction at 10 µM [3, 16]: 1.51 to 2
Cc1cc(C(=O)Nc2cccc([C@H](C)Cc3nncn3C)c2)nc(C2CC2)n1 [Compound 195, (R)-2-cyclopropyl-6-methyl-N-(3-(1-(4-methyl-4H-1,2,4-triazol-3-yl)propan-2-yl)phenyl)pyrimidine-4-carboxamide] | < 2 | > 4 | < 2 | > 4 | < 2 | > 4 | ≤ 1.2 | > 1.6 | ≤ 1.2 | 1.2 to 1.4 | ≤ 1.2 | > 1.6 | ≤ 1.2 | 1.4 to 1.6 | > 4 | 2.01 to 3 | 2.01 to 4 | > 4 | > 4 | > 4 | fold induction at 1.11 µM [3, 14]: 2.01 to 4; fold induction at 1.11 µM [3, 15]: 2.01 to 3; fold induction at 1.11 µM [3, 16]: 1.51 to 2; fold induction at 10 µM [3, 14]: 2.01 to 4; fold induction at 10 µM [3, 15]: > 4; fold induction at 10 µM [3, 16]: 1.51 to 2
C[C@H](Cc1nncn1C)c1cccc(N2Cc3c(cccc3C(F)(F)F)C2=O)c1 [Compound 255a, (R)-2-(3-(1-(4-methyl-4H-1,2,4-triazol-3-yl)propan-2-yl)phenyl)-4-(trifluoromethyl)isoindolin-1-one] | < 2 | 3.01 to 4 | < 2 | 2.01 to 3 | < 2 | < 2 | ≤ 1.2 | 1.2 to 1.4 | ≤ 1.2 | 1.2 to 1.4 | ≤ 1.2 | ≤ 1.2 | ≤ 1.2 | ≤ 1.2 | ≤ 1.5 | 3.01 to 4 | ≤ 1.5 | 1.51 to 2 | > 4 | 1.51 to 2 | fold induction at 1.11 µM [3, 14]: ≤ 1.5; fold induction at 1.11 µM [3, 15]: < 2; fold induction at 1.11 µM [3, 16]: ≤ 1.5; fold induction at 10 µM [3, 14]: ≤ 1.5; fold induction at 10 µM [3, 15]: < 2; fold induction at 10 µM [3, 16]: ≤ 1.5
C[C@H](Cc1nncn1C)c1cccc(NC(=O)c2n[nH]c3c2CCC3)c1 [Compound 313, (R)-N-(3-(1-(4-Methyl-4H-1,2,4-triazol-3-yl)propan-2-yl)phenyl)-1,4,5,6-tetrahydrocyclopenta[c]pyrazole-3-carboxamide] | > 4 | > 4 | 3.01 to 4 | 2.01 to 3 | > 4 | 2.01 to 3 | 1.4 to 1.6 | 1.2 to 1.4 | 1.2 to 1.4 | 1.2 to 1.4 | > 1.6 | 1.2 to 1.4 | 1.4 to 1.6 | ≤ 1.2 | ≤ 1.5 | < 2 | ≤ 1.5 | 2.01 to 4 | 2.01 to 3 | 2.01 to 4 | fold induction at 1.11 µM [3, 14]: ≤ 1.5; fold induction at 1.11 µM [3, 15]: 2.01 to 3; fold induction at 1.11 µM [3, 16]: ≤ 1.5; fold induction at 10 µM [3, 14]: 1.51 to 2; fold induction at 10 µM [3, 15]: < 2; fold induction at 10 µM [3, 16]: ≤ 1.5
Cc1cc(C(=O)Nc2cccc([C@@H](C)Cc3nncn3C)c2)nc(C2CC2)n1 [Compound 325, (S)-2-Cyclopropyl-6-methyl-N-(3-(1-(4-methyl-4H-1,2,4-triazol-3-yl)propan-2-yl)phenyl)pyrimidine-4-carboxamide] | > 4 | > 4 | 2.01 to 3 | > 4 | 2.01 to 3 | > 4 | 1.4 to 1.6 | 1.4 to 1.6 | 1.2 to 1.4 | 1.2 to 1.4 | 1.4 to 1.6 | > 1.6 | ≤ 1.2 | 1.2 to 1.4 | 1.51 to 2 | 3.01 to 4 | ≤ 1.5 | 2.01 to 4 | > 4 | 2.01 to 4 | fold induction at 1.11 µM [3, 14]: ≤ 1.5; fold induction at 1.11 µM [3, 15]: < 2; fold induction at 1.11 µM [3, 16]: ≤ 1.5; fold induction at 10 µM [3, 14]: 1.51 to 2; fold induction at 10 µM [3, 15]: < 2; fold induction at 10 µM [3, 16]: ≤ 1.5
